Laboratory results published in ChEMBL document CHEMBL1129324, “Tyrphostins. 5. Potent inhibitors of platelet-derived growth factor receptor tyrosine kinase: structure-activity relationships in quinoxalines, quinolines, and indole tyrphostins” (J Med Chem, 1996).

molecular target: Platelet-derived growth factor receptor (Mus musculus, UniProt P05622+P26618); experiment: Inhibitory activity against platelet-derived growth factor receptor tyrosine kinase in Swiss 3T3 cells; format: cell-based

Compound | IC50 [µM]
c1ccc(-c2nc3ccccc3nc2-c2ccccn2)nc1 | 100
c1ccc(-c2nc3ccccc3nc2-c2ccccc2)cc1 | > 50
c1ccc2nc(-c3c[nH]c4ccccc34)cnc2c1 | > 100
Cc1cc2nc(CSCCOCCSCc3nc4cc(C)c(C)cc4nc3-c3ccccc3)c(-c3ccccc3)nc2cc1C | > 50
c1ccc(-c2ccc(-c3cnc4ccccc4n3)s2)cc1 | > 100
c1coc(-c2nc3ccccc3nc2-c2ccco2)c1 | > 100
Clc1cc2ncc(-c3ccccc3)nc2cc1Cl | > 50
c1ccc(-c2cnc3ncccc3n2)cc1 | 35
Cc1cc2ncc(-c3ccc(O)c(O)c3)nc2cc1C | 0.6
Cc1cc2nc(C(=O)O)c(-c3ccccc3)nc2cc1C | 1
CC(C)CCc1ccc(-c2cnc3ccccc3n2)s1 | > 100
Cc1cc2nc(CSCCCSCc3nc4cc(C)c(C)cc4nc3-c3ccccc3)c(-c3ccccc3)nc2cc1C | > 50
c1ccc2nc(-c3ccsc3)cnc2c1 | > 100
Cc1cc2nc(CSCc3nc4cc(C)c(C)cc4nc3-c3ccccc3)c(-c3ccccc3)nc2cc1C | > 50
Cc1cc2nc3[nH]c4ccc(Br)cc4c3nc2cc1C | > 50
CCOP(=O)(Cc1nc2cc(C)c(C)cc2nc1-c1ccccc1)OCC | > 50
Cc1cc2nc(Cl)c(-c3ccccc3)nc2cc1C | > 50
Cc1cc2nc(C=O)c(-c3ccccc3)nc2cc1C | > 50
COc1cc2nc(-c3ccccc3)cnc2cc1O | 100
Cc1nc2ccccc2nc1C | > 100
Cc1cc2nc(C)c(C)nc2cc1C | > 50
Cc1cc2nc(-c3ccccn3)c(-c3ccccn3)nc2cc1C | > 100
CCOC(=O)c1nc2cc(C)c(C)cc2nc1-c1ccccc1 | > 50

Compound | IC50 [µM]
O=C(c1ccccc1)c1ccc2ncc(-c3ccccc3)nc2c1 | 6
Cc1cc2nc(O)c(-c3ccccc3)[n+]([O-])c2cc1C | > 50
c1csc(-c2cnc3ccccc3n2)c1 | 100
COc1cc2nc(O)c(-c3ccccc3)nc2cc1OC | > 50
Cc1ccc2ncc(-c3ccccc3)nc2c1 | 90
Oc1cc2ncc(-c3ccccc3)nc2cc1O | > 100
O=[N+]([O-])c1ccc2ncc(-c3ccccc3)nc2c1 | 25
c1ccc(-c2cnc3cc4ccccc4cc3n2)cc1 | 0.9
c1coc(-c2cnc3ccccc3n2)c1 | > 100
c1ccc(-c2cnc3ccccc3n2)cc1 | 10
Cc1cc2nc(O)c(-c3ccccc3)nc2cc1C | 10
Cc1ccc(-c2cnc3ccccc3n2)s1 | > 100
O=C(O)c1ccc2ncc(-c3ccccc3)nc2c1 | > 50
Cc1nc2ccccc2nc1-c1ccccc1 | > 100
CCOCc1nc2cc(C)c(C)cc2nc1-c1ccccc1 | > 50
Cc1cc2nc(C)c(-c3ccccc3)nc2cc1C | > 50
COc1cc2ncc(-c3ccccc3)nc2cc1OC | 0.8
Nc1ncnc2ncc(-c3ccccc3)nc12 | > 50
Cc1cc2nc(CN(C)C)c(-c3ccccc3)nc2cc1C | > 50
Cc1cc2nc(CP(=O)(O)O)c(-c3ccccc3)nc2cc1C | > 50
Cc1cc2nc(CBr)c(-c3ccccc3)nc2cc1C | > 50
O=c1nc2[nH]c3ccccc3nc-2c(=O)[nH]1 [ALLOXAZINE] | > 50
